Molecules are shown by their SMILES. Like-named read-outs stand apart in the source and are kept apart here.

Results on four molecules are retold here after patent US20250345287A1, “COMPOSITION COMPRISING A MIXTURE OF AT LEAST ONE OIL AND ONE OR MORE SEMIFLUORINATED ALKANES, A USE OF THE COMPOSITION FOR TREATING A DISEASE AS WELL AS A METHOD OF PRODUCING THE COMPOSITION AND CORRESPONDING KITS” (Fluoron GmbH, priority 2024, published 2025).

The nature of the series: Drug solubility/uptake in VitreoDens, posterior segment model. On the procedure:
Drugs were dissoluted in BSS in clinically relevant concentrations and placed in direct contact with VitreoDens in a ratio of 1:9. 50 μl of the hydrophilic phase were removed from the experiment after 1, 6 and 24 hours and drug concentration was determined using HPLC.
For all the tested small molecule drugs HPLC or HPLC-MS (Agilent 1100 Series) with a reversed-phase C18 column (Chromolith® Performance RP-18e, Merck KGaA Darmstadt, Germany) was performed. Calibration curves and exemplary HPLC runs for each active substance are presented in the Supplementary Materials.
Thus, the solubility of a variety of drugs was tested in VitreoDens in an established posterior segment model (FIGS. 7A and 7B) A >90% fill is mostly thought of as a sufficient fill. Thus, this ratio, given a vitreous cavity volume of 5 ml, was recreated in negatively charged glass vials. First, the drug is injected into the hydrophilic phase at a certain concentration, aliquots of the hydrophilic phase are recovered after certain time points to assess the distribution of the drug in the hydrophilic phase and in VitreoDens (FIG. 7A).

Turning to `O=c1[nH]cc(F)c(=O)[nH]1` [5-Fluoruracil], the “solubility in VitreoDens” value (in-vitro, posterior segment model, FIG. 7C) is “excellent solubility”.

In the case of `CC(=O)[C@]1(O)Cc2c(O)c3c(c(O)c2[C@@H](O[C@H]2C[C@H](N)[C@H](O)[C@H](C)O2)C1)C(=O)c1ccccc1C3=O` [Idarubicin], the “solubility in VitreoDens” value is on record as “excellent solubility”. On the same count and under the same terms, the entry for `C=CC[C@@H]1/C=C(\C)C[C@H](C)C[C@H](OC)[C@H]2O[C@@](O)(C(=O)C(=O)N3CCCC[C@H]3C(=O)O[C@H](/C(C)=C/[C@@H]3CC[C@@H](O)[C@H](OC)C3)[C@H](C)[C@@H](O)CC1=O)[C@H](C)C[C@@H]2OC` [Tacrolimus] is “excellent solubility”; for `C[C@@H](c1ncncc1F)[C@](O)(Cn1cncn1)c1ccc(F)cc1F` [voriconazole] it is “excellent solubility”.
